In patent EP3074389B1, “QUINOLINE DERIVATIVES AS BROMODOMAIN INHIBITORS” (Gilead Sciences, Inc., priority 2013, dated 2015):

Tests used:
BRD4 domain 2 = BRD4 domain 2 (Homo sapiens, UniProt O60885); assay: Kd determination of inhibitors binding to BRD4 domain 2 (Epic label-free platform); settings: direct binding to immobilized BRD4 domain 2; tripling dilution series from 20µM; about 1hr equilibrium; rounded to whole number
Outline: (§1)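 Label-free resonant waveguide (Epic) direct binding to BRD4 domain 1 or domain 2 amine-coupled via EDC/Sulfo-NHS at 150 µg/mL in 20 mM HEPES pH 7. Binding response taken as wavelength shift (pm) between baseline and second read; Kd from fit to a single-site binding isotherm.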

BRD4 domain 1 = BRD4 domain 1 (Homo sapiens, UniProt O60885); assay: Kd determination of inhibitors binding to BRD4 domain 1 (Epic label-free platform); settings: direct binding to immobilized BRD4 domain 1; tripling dilution series from 20µM; about 1hr equilibrium; rounded to whole number; read-out: Epic Kd BRD41
Outline: as §1

| SMILES | Kd (BRD4 domain 2) [µM] | Kd (BRD4 domain 1) [µM] |
| --- | --- | --- |
| Cc1noc(C)c1-c1cc(S(=O)(=O)NC2CCCC2)c2cc(-c3ccc(F)cc3)c(=O)[nH]c2c1 [Compound 28, N-cyclopentyl-7-(3,5-dimethylisoxazol-4-yl)-3-(4-fluorophenyl)-2-oxo-1,2-dihydroquinoline-5-sulfonamide] | 0.555 | 0.348 |
| Cc1noc(C)c1-c1cc(S(=O)(=O)N[C@H]2CC[C@H](O)CC2)c2cccnc2c1 [Compound 21, 7-(3,5-dimethylisoxazol-4-yl)-N-((1r,4r)-4-hydroxycyclohexyl)qu inoline-5-sulfonamide] | 17.3 | 10.4 |
| Cc1noc(C)c1-c1cc(S(=O)(=O)NC2CCC2)c2cccnc2c1 [Compound 10, N-cyclobutyl-7-(3,5-dimethylisoxazol-4-yl)quinoline-5-sulfonamide] | 2.68 | 3.19 |
| Cc1noc(C)c1-c1cc(S(=O)(=O)NC2CC3CCC(C2)N3C)c2cccnc2c1 (centres unmarked) [Compound 40, 7-(3,5-dimethylisoxazol-4-yl)-N-(8-methyl-8-azabicyclo[3.2.1]octan-3-yl)quinoline-5-sulfonamide] | > 20 | 16 |

Continued, values first:

| Kd (BRD4 domain 2) [µM] | Kd (BRD4 domain 1) [µM] | SMILES |
| --- | --- | --- |
| 8.64 | > 20 | CCN[C@H]1CCC[C@H]1NS(=O)(=O)c1cc(-c2c(C)noc2C)cc2ncccc12 [Compound 53, 7-(3,5-dimethylisoxazol-4-yl)-N-((1R,2S)-2-(ethylamino)cyclopentyl)quinoline-5-sulfonamide] |
| 2.27 | 3.16 | Cc1noc(C)c1-c1cc(S(=O)(=O)N[C@@H]2CCC[C@H]2C(=O)N2CCNCC2)c2cccnc2c1 [Compound 47, 7-(3,5-dimethylisoxazol-4-yl)-N-((1R,2R)-2-(piperazine-1-carbonyl)cyclopentyl) quinoline-5-sulfonamide] |
| 18.2 | 2 | Cc1noc(C)c1-c1cc(S(=O)(=O)NC2(C(F)(F)F)CC2)c2cccnc2c1 [Compound 84, 7-(3,5-dimethylisoxazol-4-yl)-N-(1-(trifluoromethyl)cyclopropyl)quinoline-5-sulfonamide] |
